In patent US7166738B2, “Non-nucleoside reverse transcriptase inhibitors” (Roche Palo Alto LLC, priority 2004, dated 2007):

SMILES	melting point [°C]
CCc1ccc(CC(=O)Nc2ccc(S(N)(=O)=O)cc2)cc1Oc1cc(C#N)cc(C#N)c1Cl [Compound I-52, 2-[3-(2-Chloro-3,5-dicyano-phenoxy)-4-ethyl-phenyl]-N-(4-sulfamoyl-phenyl)-acetamide]	119.7 to 123.3
CCc1ccc(CC(=O)Nc2ccc(S(N)(=O)=O)cc2Cl)cc1Oc1cc(C#N)cc(C#N)c1Cl [Compound I-54, 2-[3-(2-Chloro-3,5-dicyano-phenoxy)-4-ethyl-phenyl]-N-(2-chloro-4-sulfamoyl-phenyl)-acetamide]	180.3 to 183.1
Cc1cc(S(N)(=O)=O)ccc1NC(=O)Cc1ccc(Cl)c(Oc2c(C)cc(C#N)cc2C)c1 [Compound I-56, 2-[4-Chloro-3-(4-cyano-2,6-dimethyl-phenoxy)-phenyl]-N-(2-methyl-4-sulfamoyl-phenyl)-acetamide]	232.1 to 234.6
COc1ccc(CC(=O)Nc2ccc(S(N)(=O)=O)cc2)cc1Oc1cc(Cl)cc(C#N)c1 [Compound I-57, 2-[3-(3-Chloro-5-cyano-phenoxy)-4-methoxy-phenyl]-N-(4-sulfamoyl-phenyl)-acetamide]	218.3 to 221.4
CCc1ccc(CC(=O)Nc2ccccc2Cl)cc1Oc1cc(C#N)cc(C#N)c1Cl [Compound I-60, 2-[3-(2-Chloro-3,5-dicyano-phenoxy)-4-ethyl-phenyl]-N-(2-chloro-phenyl)-acetamide]	110 to 111.5
COc1ccc(CC(=O)Nc2ccccc2Cl)cc1Oc1cc(Cl)cc(C#N)c1 [Compound I-61, 2-[3-(3-Chloro-5-cyano-phenoxy)-4-methoxy-phenyl]-N-(2-chloro-phenyl)-acetamide]	175.7 to 178.3
COc1ccc(CC(=O)Nc2ccc(S(N)(=O)=O)cc2Cl)cc1Oc1cc(Cl)cc(C#N)c1 [Compound I-64, 2-[3-(3-Chloro-5-cyano-phenoxy)-4-methoxy-phenyl]-N-(2-chloro-4-sulfamoyl-phenyl)-acetamide]	186.3 to 189.7
COc1ccc(CC(=O)Nc2ccc(S(N)(=O)=O)cc2)cc1Oc1cc(C#N)ccc1Cl [Compound I-65, 2-[3-(2-Chloro-5-cyano-phenoxy)-4-methoxy-phenyl]-N-(4-sulfamoyl-phenyl)-acetamide]	252.3 to 254.3
COc1ccc(CC(=O)Nc2ccc(S(N)(=O)=O)cc2C)cc1Oc1cc(C#N)ccc1Cl [Compound I-66, 2-[3-(2-Chloro-5-cyano-phenoxy)-4-methoxy-phenyl]-N-(2-methyl-4-sulfamoyl-phenyl)-acetamide]	232.9 to 236.9
COc1ccc(CC(=O)Nc2ccc(S(N)(=O)=O)cc2C)cc1Oc1cc(Cl)cc(C#N)c1 [Compound I-73, 2-[3-(3-Chloro-5-cyano-phenoxy)-4-methoxy-phenyl]-N-(2-methyl-4-sulfamoyl-phenyl)-acetamide]	222.3 to 224.3
Cc1ccc(CC(=O)Nc2ccccc2Cl)c(F)c1Oc1cc(C#N)cc(C(F)F)c1 [Compound I-86, N-(2-Chloro-phenyl)-2-[3-(3-cyano-5-difluoromethyl-phenoxy)-2-fluoro-4-methyl-phenyl]-acetamide]	163.3 to 164.4
N#Cc1cc(Oc2cc(CC(=O)Nc3ccc(S(N)(=O)=O)cc3)ccc2Cl)cc(C(F)(F)F)c1 [Compound I-88, 2-[4-Chloro-3-(3-cyano-5-trifluoromethyl-phenoxy)-phenyl]-N-(4-sulfamoyl-phenyl)-acetamide]	219 to 221.4
N#Cc1cc(Oc2cc(CC(=O)Nc3ccc(S(N)(=O)=O)cc3Cl)ccc2Cl)cc(C(F)(F)F)c1 [Compound I-90, 2-[4-Chloro-3-(3-cyano-5-trifluoromethyl-phenoxy)-phenyl]-N-(2-chloro-4-sulfamoyl-phenyl)-acetamide]	198 to 202
COc1ccc(CC(=O)Nc2ccc(S(N)(=O)=O)cc2)cc1Oc1cc(C#N)cc(C(F)F)c1 [Compound I-92, 2-[3-(3-Cyano-5-difluoromethyl-phenoxy)-4-methoxy-phenyl]-N-(4-sulfamoyl-phenyl)-acetamide]	213.9 to 214.2
Cc1cc(S(N)(=O)=O)ccc1NC(=O)Cc1ccc(Cl)c(Oc2cc(C#N)cc(C(C)(F)F)c2)c1F [Compound I-96, 2-{4-Chloro-3-[3-cyano-5-(1,1-difluoro-ethyl)-phenoxy]-2-fluoro-phenyl}-N-(2-methyl-4-sulfamoyl-phenyl)-acetamide]	198.5 to 201
CC(F)(F)c1cc(C#N)cc(Oc2c(Cl)ccc(CC(=O)Nc3ccc(S(N)(=O)=O)cc3Cl)c2F)c1 [Compound I-97, 2-{4-Chloro-3-[3-cyano-5-(1,1-difluoro-ethyl)-phenoxy]-2-fluoro-phenyl}-N-(2-chloro-4-sulfamoyl-phenyl)-acetamide]	192 to 197.6
N#Cc1cc(Cl)cc(Oc2c(Cl)ccc(CC(=O)Nc3ccc(S(N)(=O)=O)cc3Cl)c2F)c1 [Compound I-100, 2-[4-Chloro-3-(3-chloro-5-cyano-phenoxy)-2-fluoro-phenyl]-N-(2-chloro-4-sulfamoyl-phenyl)-acetamide]	234.4 to 234.9
COc1cc(CC(=O)Nc2ccc(S(N)(=O)=O)cc2)cc(Oc2cc(C#N)ccc2Cl)c1 [Compound I-102, 2-[3-(2-Chloro-5-cyano-phenoxy)-5-methoxy-phenyl]-N-(4-sulfamoyl-phenyl)-acetamide]	180.5 to 181.3

More lines, now with the values ahead:

melting point [°C]	SMILES
199.4 to 205.3	CCc1ccc(CC(=O)Nc2ccc(S(N)(=O)=O)cc2C)cc1Oc1cc(C#N)cc(C#N)c1Cl [Compound I-53, 2-[3-(2-Chloro-3,5-dicyano-phenoxy)-4-ethyl-phenyl]-N-(2-methyl-4-sulfamoyl-phenyl)-acetamide]
227.3 to 231.4	Cc1cc(C#N)cc(C)c1Oc1cc(CC(=O)Nc2ccc(S(N)(=O)=O)cc2)ccc1Cl [Compound I-55, 2-[4-Chloro-3-(4-cyano-2,6-dimethyl-phenoxy)-phenyl]-N-(4-sulfamoyl-phenyl)-acetamide]
142.1 to 142.8	CCc1ccc(CC(=O)Nc2ccccc2Cl)cc1Oc1cc(C#N)cc(F)c1Cl [Compound I-59, 2-[3-(2-Chloro-5-cyano-3-fluoro-phenoxy)-4-ethyl-phenyl]-N-(2-chloro-phenyl)-acetamide]
194 to 197.8	COc1ccc(CC(=O)Nc2ccccc2Cl)cc1Oc1cc(C#N)ccc1Cl [Compound I-62, 2-[3-(2-Chloro-5-cyano-phenoxy)-4-methoxy-phenyl]-N-(2-chloro-phenyl)-acetamide]
214.6 to 216.4	COc1ccc(CC(=O)Nc2ccc(S(N)(=O)=O)cc2Cl)cc1Oc1cc(C#N)ccc1Cl [Compound I-67, 2-[3-(2-Chloro-5-cyano-phenoxy)-4-methoxy-phenyl]-N-(2-chloro-4-sulfamoyl-phenyl)-acetamide]
183.9 to 185.1	Cc1cc(C#N)cc(C)c1Oc1cc(CC(=O)Nc2ccccc2Cl)ccc1Cl [Compound I-68, 2-[4-Chloro-3-(4-cyano-2,6-dimethyl-phenoxy)-phenyl]-N-(2-chloro-phenyl)-acetamide]
230 to 232.2	Cc1cc(S(N)(=O)=O)ccc1NC(=O)Cc1ccc(C)c(Oc2cc(Cl)cc(C#N)c2)c1F [Compound I-74, 2-[3-(3-Chloro-5-cyano-phenoxy)-2-fluoro-4-methyl-phenyl]-N-(2-methyl-4-sulfamoyl-phenyl)-acetamide]
218 to 220.4	Cc1cc(S(N)(=O)=O)ccc1NC(=O)Cc1ccc(C)c(Oc2cc(C#N)cc(C(F)F)c2)c1F [Compound I-85, 2-[3-(3-Cyano-5-difluoromethyl-phenoxy)-2-fluoro-4-methyl-phenyl]-N-(2-methyl-4-sulfamoyl-phenyl)-acetamide]
211.6 to 214.6	Cc1cc(S(N)(=O)=O)ccc1NC(=O)Cc1ccc(Cl)c(Oc2cc(C#N)cc(C(F)(F)F)c2)c1 [Compound I-89, 2-[4-Chloro-3-(3-cyano-5-trifluoromethyl-phenoxy)-phenyl]-N-(2-methyl-4-sulfamoyl-phenyl)-acetamide]
188 to 198	CCc1ccc(CC(=O)Nc2ccc(S(N)(=O)=O)cc2)cc1Oc1cc(C#N)cc(C(F)F)c1 [Compound I-91, 2-[3-(3-Cyano-5-difluoromethyl-phenoxy)-4-ethyl-phenyl]-N-(4-sulfamoyl-phenyl)-acetamide]
175 to 177.2	COc1ccc(CC(=O)Nc2ccc(S(N)(=O)=O)cc2C)cc1Oc1cc(C#N)cc(C(F)F)c1 [Compound I-93, 2-[3-(3-Cyano-5-difluoromethyl-phenoxy)-4-methoxy-phenyl]-N-(2-methyl-4-sulfamoyl-phenyl)-acetamide]
185 to 187.9	COc1ccc(CC(=O)Nc2ccc(S(N)(=O)=O)cc2Cl)cc1Oc1cc(C#N)cc(C(F)F)c1 [Compound I-94, N-(2-Chloro-4-sulfamoyl-phenyl)-2-[3-(3-cyano-5-difluoromethyl-phenoxy)-4-methoxy-phenyl]-acetamide]
207 to 209.8	CC(F)(F)c1cc(C#N)cc(Oc2c(Cl)ccc(CC(=O)Nc3ccc(S(N)(=O)=O)cc3)c2F)c1 [Compound I-95, 2-{4-Chloro-3-[3-cyano-5-(1,1-difluoro-ethyl)-phenoxy]-2-fluoro-phenyl}-N-(4-sulfamoyl-phenyl)-acetamide]
212 to 216.9	CCC(=O)N(C)S(=O)(=O)c1ccc(NC(=O)Cc2ccc(Cl)c(Oc3cc(Cl)cc(C#N)c3)c2F)c(C)c1 [Compound I-99, 2-[4-Chloro-3-(3-chloro-5-cyano-phenoxy)-2-fluoro-phenyl]-N-[2-methyl-4-(methyl-propionyl-sulfamoyl)-phenyl]-acetamide]
179.8 to 184	COc1cc(CC(=O)Nc2ccc(S(N)(=O)=O)cc2C)cc(Oc2cc(C#N)ccc2Cl)c1 [Compound I-103, 2-[3-(2-Chloro-5-cyano-phenoxy)-5-methoxy-phenyl]-N-(2-methyl-4-sulfamoyl-phenyl)-acetamide]
231.6 to 233.1	CCc1cc(CC(=O)Nc2ccc(S(N)(=O)=O)cc2C)cc(Oc2cc(C#N)ccc2Cl)c1 [Compound I-106, 2-[3-(2-Chloro-5-cyano-phenoxy)-5-ethyl-phenyl]-N-(2-methyl-4-sulfamoyl-phenyl)-acetamide]
